In turn, `COC(=O)C1=C(C)NC(C)=C(P(=O)(OC(C)C)OC(C)C)C1c1cccc([N+](=O)[O-])c1` (stereo unspecified) returned a melting point of 205 to 207 °C.

With `CC(=O)Oc1ccc(C(=O)O)c2ccccc12`, the melting point is 182 to 184 °C.

For `CC1(C)CC2(NC(=O)NC2=O)c2cc(Cl)ccc2O1` (stereo unspecified), the melting point was 281 to 283 °C.

Take `COc1cc2c(cc1NCc1ccccc1)ncc1c(N)nc(-c3cccnc3)cc12`: the melting point lay in the range of 251 to 258 °C.

Take `N#CN=c1[nH]c2c([N+](=O)[O-])c(Cl)c(Cl)cc2nc1Cl`: the melting point lay in the range of 245 to 255 °C.

As for `COP(=O)(COC1C=CC(n2cnc3c(N)ncnc32)O1)OC` (stereo unspecified), the melting point fell in the range of 146 to 149 °C.

Compound `NS(=O)(=O)c1ccc(-c2cccc(-c3nc(-c4ccc(C(F)(F)F)c(F)c4)cc(C(F)(F)F)n3)c2)s1` displayed a melting point of 214 °C.

Turning to `Cn1c(=O)oc2cc3c(cc21)OCC31C(=O)N(CC2CCCO2)c2ccccc21` (stereo unspecified), the melting point was in the range of 186 to 187 °C.

For `FC(F)(F)c1nc[nH]n1`, the melting point is 89 °C.

For `CCC1Cc2cc(OCC(=O)O)cc(Br)c2C1=O` (stereo unspecified), the melting point lay within 146 to 148 °C.

`CCCc1nn(-c2ccc(C(F)(F)F)cn2)cc1CCCOc1ccc(CCC(=O)O)c(C)c1` displayed a melting point of 124 to 126 °C.

`Cc1ccccc1-c1cc(-c2ccc(F)cc2)c(C=C(Br)Br)c(C(C)C)n1`: the melting point is 108 to 110 °C.

In the case of `CCOC(=O)C(C(=O)OCC)c1c(Br)cnc2c([N+](=O)[O-])cccc12`, the melting point lay in the range of 94 to 95 °C.

Compound `O=C1c2ccccc2C(=O)N1CCc1ccc(F)cc1` registered a melting point of 106 to 107 °C.

`CCOC(=O)c1cc(C#N)c(=O)[nH]c1C` showed a melting point of 208 to 210 °C.

`CC(C)(CCc1cc2cc(Cl)ccc2n1S(=O)(=O)c1ccc2ncsc2c1)C(=O)O` registered a melting point of 151 °C.

Take `NC(=O)c1cn(CCBr)nc1[N+](=O)[O-]`: the melting point lay in the range of 135 to 137 °C.

In turn, `C=C1CCCc2ccc(OCc3ccc4ccccc4n3)cc21` registered a melting point of 56 to 58 °C.

`CNC(=S)NC1CCCc2cc(C)cnc21` (stereo unspecified) yielded a melting point of 113 °C.

Compound `O=c1c2c(Cc3ccsc3)n[nH]c2c2cccnc2n1-c1cccc(OC(F)(F)F)c1` registered a melting point of 247 to 251 °C.

`CC(=O)OC1Cc2ccc([N+](=O)[O-])cc2C1` (stereo unspecified) came in with a melting point of 84 to 85 °C.

`CC(=Cc1cccc(O)c1)[N+](=O)[O-]` showed a melting point of 96 to 98 °C.

On to `CCCCCCCCOc1ccc(-c2ccc(C(=O)Oc3ccc(C(C)(Br)C(=O)OC)cc3)cc2)cc1` (stereo unspecified), for which the melting point lay within 104 to 105 °C.

`N#CCNCCNCC#N` gave a melting point of 41 to 42 °C.

For `CC(=O)C=Cc1ccc(C#N)cc1`, the melting point lay in the range of 103 to 106 °C.

With `O=C1CCC(Nc2ncc3ncnc(Nc4ccc(F)c(Cl)c4)c3n2)CC1`, the melting point lay in the range of 232 to 234 °C.

For the compound `CC(=O)c1c(N(C)C)c(-c2ccccc2)n(Cc2ccccc2Cl)c1C`, the melting point lay within 103 to 105 °C.

As for `O=C(O)Cc1c(C(=O)c2ccc(Cl)c(F)c2)[nH]c2cc(Cl)ccc12`, the melting point was in the range of 179 to 182 °C.

For the compound `C[C@]1(CN2CCN(C(=O)OCc3ccc(C(F)(F)F)cc3)CC2)Cn2cc([N+](=O)[O-])nc2O1`, the melting point was 140 to 142 °C.

Compound `COc1ccc2c(O)c(C(C)C)cc(Br)c2c1` gave a melting point of 81.5 to 83.5 °C.

`CSc1nc2ccnn2c2ncccc12`: the melting point is 192 °C.

As to `COC(=O)c1cc(N=Cc2ccccc2)ccc1O`, the melting point lay in the range of 58 to 59 °C.

`COc1cc(C2=Nc3ccc(N4CCCC4)cc3C(=O)C2)ccc1OCc1ccccc1` came in with a melting point of 304 to 306 °C.

As to `BrCCCc1ncnn1C(c1ccccc1)(c1ccccc1)c1ccccc1`, the melting point is 146 to 149 °C.

In turn, `COC=Nc1c(SC)c(-c2ncon2)nn1-c1c(Cl)cc(C(F)(F)F)cc1Cl` returned a melting point of 119 to 121 °C.

Turning to `Cc1cc(-c2ccc(Cl)c(Cl)c2)nc(-n2cnc(-c3cccc(S(C)(=O)=O)c3)c2)n1`, the melting point worked out at 213 °C.

In turn, `C=COCCN1C(=O)CN(C)C1=O` yielded a melting point of 54 to 56 °C.

`CCC(CC)N(O)C(=O)Nc1ccc(Cc2ccc(NC(=O)N(O)C(CC)CC)c(Cl)c2)cc1Cl` showed a melting point of 172 to 173 °C.

For the compound `O=C1c2ccccc2C(=O)N1CC(=O)N1c2ccc(F)cc2N(Cc2ccccc2)C(=O)C2CCC[C@H]21` (single isomer, unassigned), the melting point fell in the range of 266 to 268 °C.

`COc1cccc(CC(O)C2CCNCC2)c1OC` (stereo unspecified) registered a melting point of 82 to 84 °C.

Take `COC(=O)c1sc(OC)c(Cl)c1O`: the melting point was 109 to 111 °C.

Compound `c1cc2c3c(cccc3c1)C(NCCCCCCCCCCCCn1ccnc1)=N2` came in with a melting point of 95 to 97 °C.

`CCCOc1ccccc1-c1nc2nc(NCCN(C)C)ncc2c(=O)[nH]1` yielded a melting point of 181 to 182 °C.

Compound `O=C(O)c1cccc(C(=O)c2ccc(C3CCCCC3)cc2)c1` came in with a melting point of 180 to 185 °C.

In turn, `Cc1ccc(-c2ccc3c(c2)C=C(C(=O)Nc2ccc(CN(C)C4CCOCC4)cc2)CCS3(=O)=O)s1` registered a melting point of 229 to 231 °C.

Take `Nc1ccccc1NC(=O)c1cc2cccc(OCC(=O)O)c2o1`: the melting point lay within 208 to 210 °C.

With `COc1ccc(S(=O)(=O)Nc2ccccc2NC(=O)c2ccco2)cc1`, the melting point was in the range of 158 to 159 °C.

Turning to `CSc1c(C(N)=S)nn(-c2c(Cl)cc(C(F)(F)F)cc2Cl)c1N`, the melting point amounted to 161 °C.

The compound `Fc1cccc2sc(S)nc12` yielded a melting point of 180 °C.

For `Nc1ccc(CCNC(=O)Nc2ccc(Nc3ccccc3)cc2)cc1`, the melting point was > 260 °C.

Consider `CCOC(=O)C=Cc1ccc(N)cc1C`, for which the melting point lay in the range of 73 to 74 °C.

The compound `COCCCNCCCc1ccc(-c2cnc(N)c(C(=O)Nc3cccnc3)n2)cc1` had a melting point of 113 °C.

Turning to `Cc1c(C(=O)c2sc(Nc3ccc(N4CCOCC4)cc3)nc2N)ncn1C`, the melting point was > 300 °C.

Turning to `C#CCOc1ccc(S(=O)(=O)C2(C(=O)O)CCN(Cc3ccc(Cl)cc3)CC2)cc1`, the melting point is 205 °C.

`CCOC(=O)c1cc(OC)c(OCCOC)cc1[N+](=O)[O-]` came in with a melting point of 68 to 69 °C.

As to `CCOC(CNC(=O)Nc1ccc(-n2cncn2)cc1)OCC`, the melting point is 139 to 140 °C.

Consider `Cc1ccc(Cc2c[nH]c(NCCCC3CCCc4cccnc43)nc2=O)cn1` (stereo unspecified), for which the melting point was in the range of 75 to 80 °C.

Regarding `OCC1OC(n2cnc3c(NC4Cc5ccccc5C4)ncnc32)C(O)C1O` (stereo unspecified), the melting point was 166 to 168 °C.

In turn, `Cc1ccc(S(=O)(=O)OCC2Cc3cccc(O)c3O2)cc1` (stereo unspecified) returned a melting point of 122 to 125 °C.

In turn, `O=C1C=C(NC(=O)C(=O)c2cn(Cc3ccccc3[N+](=O)[O-])c3ccccc23)CO1` had a melting point of 257 to 260 °C.

`Fc1ccc(C=Nn2cncn2)cc1` showed a melting point of 118 to 120 °C.

`COC(=O)NNC(=O)CCc1ccccc1` gave a melting point of 118 °C.

Compound `Brc1cc2c(c(C34CC5CC(CC(C5)C3)C4)c1)OCO2` had a melting point of 136 °C.

For the compound `CSc1ccc2nc(N)c(C(N)=O)cc2c1`, the melting point was 229 to 242 °C.

On to `O=C(C=Cc1ccccc1)SC(Cn1ccnc1)c1ccc(Cl)cc1Cl` (stereo unspecified), for which the melting point lay in the range of 139 to 141 °C.

`CC(C)(C)c1ccc(Oc2ccc([N+](=O)[O-])cc2C(=O)Nc2ccccc2)cc1` returned a melting point of 138 to 140 °C.

In the case of `Cc1cccc(C)c1Sc1nc[nH]n1`, the melting point was 126 to 127 °C.

Consider `C=CCc1ccc(C(NC(C)=O)C(=O)OC)cc1O` (stereo unspecified), for which the melting point lay within 143 to 145 °C.

For `NS(=O)(=O)OCCOc1ccccc1Cl`, the melting point lay within 84.5 to 86 °C.

On to `CCn1nc(-c2ccc(F)cc2)c(-c2ccncc2)c1C(=O)N(C)Cc1ccccc1`, for which the melting point fell in the range of 148 to 149 °C.

Compound `CC(C)(C)c1cc(O)cc(C(C)(C)C)c1S(=O)c1nnc(-c2ccccn2)o1` (stereo unspecified) showed a melting point of 172 to 173 °C.

As for `COc1c(C)c2c(c(NC(=O)N(C)C)c1C/C=C(\C)CCC(=O)O)C(=O)OC2`, the melting point was 170 to 190 °C.

Turning to `CCNC1=CC(=O)CC1`, the melting point was determined as 136 °C.

On to `CN(C)CCCC(C#N)(c1ccc(Cl)cc1)c1ccc(-n2ncc(=O)[nH]c2=O)cc1Cl` (stereo unspecified), for which the melting point stood at 140 °C.

`O=C(N1CCN(c2nc(N3CC=CC3)nc(N3CC=CC3)n2)CC1)n1ccnc1` displayed a melting point of 160 to 162 °C.

The compound `Cc1nn(C)c(-c2ccc(F)cc2)c1C=O` came in with a melting point of 130 to 131 °C.

`Cc1cc(C(=O)Nc2ccccc2C)n(C)n1` showed a melting point of 158 to 160 °C.

Compound `CC(C)(C)CC(NC(=O)c1ccc(Cl)cc1)NC(=NC#N)Nc1cccnc1` (stereo unspecified) yielded a melting point of 181 to 183 °C.

Consider `CC(=O)C=Cc1ccc(NS(C)(=O)=O)c(Oc2ccc(F)cc2F)c1`, for which the melting point fell in the range of 130 to 132 °C.

`c1ccc(CN2CCCC3(C2)OC(c2ccccc2)(c2ccccc2)c2ccccc23)cc1` (stereo unspecified): the melting point was in the range of 144 to 146 °C.

On to `CC1(C)CCNC(=O)C(Cl)(Cl)C1`, for which the melting point lay within 108 to 110 °C.

In turn, `CCNC(=O)Nc1cnc2ccc(Nc3ccc(C)cc3)nc2n1` showed a melting point of 235 °C.

`CCCc1nn(C)c2c(=O)[nH]c(-c3cc(C(=O)CBr)ccc3OCC)nc12` registered a melting point of 159 to 160 °C.

`COc1ccc(S(=O)(=O)n2c(=O)n(-c3cccc(Cl)c3)c3cc(Cl)ccc32)c(OC)c1`: the melting point was determined as 173 °C.

Compound `C/C(=N\O)C(=O)c1ccc(F)cc1F` came in with a melting point of 99 to 101 °C.

`O=C(Oc1ccc(Oc2ccccc2)cc1)N1CCC(O)CC1` came in with a melting point of 130 to 133 °C.

Take `COc1cccc(C(=O)Nc2ccc(C(=O)c3ccccc3)cc2)c1`: the melting point lay within 139 to 141 °C.

The compound `CCS(=O)(=O)c1ccc(Oc2ccc(Cl)c(Cl)c2)nc1C#N` came in with a melting point of 150 to 151 °C.

Regarding `CC(C)(C)c1cc(C(O)C#Cc2ccc(C(=O)O)c(O)c2)cc(C(C)(C)C)c1OCOCC[Si](C)(C)C` (stereo unspecified), the melting point lay in the range of 146 to 147 °C.

The compound `CCOC(=O)c1cnc2cc(I)ccc2n1` yielded a melting point of 160 to 162 °C.

Turning to `CCCCc1nc2c(N)nc3ccccc3c2n1CCCCC(N)=O`, the melting point was 219 to 221 °C.

Values taken from a melting point compilation (Tetko et al.; mined from patent text by program, amines drawn as free bases though some values may be those of a salt).
